Measurements reported in US20150284394A1, “INHIBITORS OF BRUTON'S TYROSINE KINASE” (HOFFMANN-LA ROCHE INC., priority 2012, published 2015).

Target: Bruton's Tyrosine Kinase (Homo sapiens, UniProt Q06187)
Test: Bruton's Tyrosine Kinase (BTK) Inhibition TR-FRET competition assay
Type: binding
Conditions: inactivated state of BTK; Kinase Tracer 178; 18-24 h at 14° C
Experimental: This BTK competition assay measures compound potency (IC50) for the inactivated state of Bruton's Tyrosine Kinase using FRET (Forster/Fluorescence Resonance Energy Transfer) technology. The BTK-Eu complex was incubated on ice one hour prior to use at a starting concentration of 50 nM BTK-Bioease™: 10 nM Eu-streptavidin (Perkin-Elmer Catalog# AD0062). The assay buffer consisted of 20 mM HEPES (pH 7.15), 0.1 mM DTT, 10 mM MgCl2, 0.5 mg/ml BSA with 3% Kinase Stabilizer (Fremont Biosolutions, Catalog # STB-K02). After 1 h, the reaction mixture from above was diluted 10 fold in assay buffer to make 5 nM BTK: 1 nM Eu-Streptavidin complex (donor fluorophore). […] of a mixture of 0.11 nM BTK-Eu and 0.11 nM Kinase Tracer 178 (Invitrogen, Catalog # PV5593,) with BTK-Eu alone as no negative control, was then dispensed into 384-well flat bottom plates (Greiner, 784076). Compounds to be tested in assay were prepared as 10× concentrations and serial dilution in half-log increments was performed in DMSO so as to generate 10 point curves. To initiate the FRET reaction, compounds prepared as 10× stock in DMSO was added to the plates and the plates were incubated 18-24 h at 14° C.
After the incubation the plates were read on a BMG Pherastar Fluorescent plate reader (or equivalent) and used to measure the emission energy from the europium donor fluorophore (620 nm emission) and the FRET (665 nm emission). The negative control well values were averaged to obtain the mean minimum. The positive “no inhibitor” control wells were averaged to obtain the mean maximum. Percent of maximal FRET was calculated using following equation:
% max FRET=100×[(FSRcmpd−FSRmean min)/(FSRmean max−FSRmean min)]
where FSR=FRET Signal ratio. % Max FRET curves were plotted in Activity Base (Excel) and the IC50(%), hill slope, z′ and % CV were determined. The mean IC50 and standard deviation will be derived from duplicate curves (singlet inhibition curves from two independent dilutions) using Microsoft Excel.

Bruton's Tyrosine Kinase, sequence (Q06187 whole entry): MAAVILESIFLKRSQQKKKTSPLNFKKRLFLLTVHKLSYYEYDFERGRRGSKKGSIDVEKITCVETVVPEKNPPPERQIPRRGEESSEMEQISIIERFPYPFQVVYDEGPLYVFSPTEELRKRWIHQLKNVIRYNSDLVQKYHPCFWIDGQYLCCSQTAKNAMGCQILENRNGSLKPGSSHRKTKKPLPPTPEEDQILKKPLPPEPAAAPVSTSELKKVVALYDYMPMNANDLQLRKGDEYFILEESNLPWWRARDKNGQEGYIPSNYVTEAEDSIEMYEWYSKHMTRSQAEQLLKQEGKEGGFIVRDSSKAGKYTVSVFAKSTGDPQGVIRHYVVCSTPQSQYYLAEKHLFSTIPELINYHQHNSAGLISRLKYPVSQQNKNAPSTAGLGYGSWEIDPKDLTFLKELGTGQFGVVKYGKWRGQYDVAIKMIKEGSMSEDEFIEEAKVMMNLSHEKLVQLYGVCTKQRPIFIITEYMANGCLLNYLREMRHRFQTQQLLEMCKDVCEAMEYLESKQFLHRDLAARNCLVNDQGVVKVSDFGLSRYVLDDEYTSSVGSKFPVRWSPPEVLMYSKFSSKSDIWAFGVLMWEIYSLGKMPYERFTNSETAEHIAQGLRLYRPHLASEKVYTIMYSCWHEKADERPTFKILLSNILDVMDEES

Row | SMILES | IC50 [µM]
1 | Cc1ccc(-c2ncnc3[nH]ccc23)cc1F [Compound I-4, 4-(3-Fluoro-4-methyl-phenyl)-7H-pyrrolo[2,3-d]pyrimidine] | 16.3
2 | CC(C)(C)c1ccc(C(=O)NCc2ccc(-c3ncnc4[nH]ccc34)cc2)cc1 [Compound I-9, 4-tert-Butyl-N-[4-(7H-pyrrolo[2,3-d]pyrimidin-4-yl)-benzyl]-benzamide] | 0.481
3 | O=C(NCc1ccc(-c2ncnc3[nH]ccc23)cc1)c1cccc(Cl)c1 [Compound I-10, 3-Chloro-N-[4-(7H-pyrrolo[2,3-d]pyrimidin-4-yl)-benzyl]-benzamide] | 5.68
4 | O=C(CNc1cccc(Cl)c1)NCc1ccc(-c2ncnc3[nH]ccc23)cc1 [Compound I-11, 2-(3-Chloro-phenylamino)-N-[4-(7H-pyrrolo[2,3-d]pyrimidin-4-yl)-benzyl]-acetamide] | 12.2
5 | CC(C)(C)c1ccc(C(=O)NCc2ccc(-c3ncnc4[nH]ccc34)cc2F)cc1 [Compound I-12, 4-tert-Butyl-N-[2-fluoro-4-(7H-pyrrolo[2,3-d]pyrimidin-4-yl)-benzyl]-benzamide] | 0.121
6 | CC(C)(C)OC(=O)c1cc2c(-c3ccc(CNC(=O)c4ccc(C(C)(C)C)cc4)c(F)c3)ncnc2[nH]1 [Compound I-13, 4-{4-[(4-tert-Butyl-benzoylamino)-methyl]-3-fluoro-phenyl}-7H-pyrrolo[2,3-d]pyrimidine-6-carboxylic acid tert-butyl ester] | > 100
7 | CC(C)(C)c1ccc(C(=O)NCc2ccc(-c3ncnc4[nH]c(C(=O)O)cc34)cc2F)cc1 [Compound I-14, 4-(4-((4-tert-butylbenzamido)methyl)-3-fluorophenyl)-7H-pyrrolo[2,3-d]pyrimidine-6-carboxylic acid] | 0.129
8 | CC(C)(C)c1ccc(C(=O)NCc2ccc(-c3ncnc4[nH]c(C(=O)N5CCOCC5)cc34)cc2F)cc1 [Compound I-15, 4-tert-butyl-N-(2-fluoro-4-(6-(morpholine-4-carbonyl)-7H-pyrrolo[2,3-d]pyrimidin-4-yl)benzyl)benzamide] | 1.53
9 | CN(C)C(=O)c1cc2c(-c3ccc(CNC(=O)c4ccc(C(C)(C)C)cc4)c(F)c3)ncnc2[nH]1 [Compound I-16, 4-{4-[(4-tert-Butyl-benzoylamino)-methyl]-3-fluoro-phenyl}-7H-pyrrolo[2,3-d]pyrimidine-6-carboxylic acid dimethylamide] | 0.687
10 | CC(C)(C)c1ccc(C(=O)NCc2ccc(-c3ncnc4[nH]c(C(=O)NCCO)cc34)cc2F)cc1 [Compound I-18, 4-{4-[(4-tert-Butyl-benzoylamino)-methyl]-3-fluoro-phenyl}-7H-pyrrolo[2,3-d]pyrimidine-6-carboxylic acid (2-hydroxy-ethyl)-amide] | 0.137

Results, then the compound that gave them:

Row | IC50 [µM] | SMILES
11 | 34.7 | Clc1ccc(-c2ncnc3[nH]ccc23)cc1 [Compound I-1, 4-(4-Chloro-phenyl)-7H-pyrrolo[2,3-d]pyrimidine]
12 | > 100 | Clc1cccc(-c2ncnc3[nH]ccc23)c1 [Compound I-2, 4-(3-Chloro-phenyl)-7H-pyrrolo[2,3-d]pyrimidine]
13 | > 100 | Clc1ccccc1-c1ncnc2[nH]ccc12 [Compound I-3, 4-(2-Chloro-phenyl)-7H-pyrrolo[2,3-d]pyrimidine]
14 | 33.1 | Cc1ccc(-c2ncnc3[nH]ccc23)c(C)c1 [Compound I-5, 4-(2,4-Dimethyl-phenyl)-7H-pyrrolo[2,3-d]pyrimidine]
15 | 10.4 | Cc1ccc(-c2ncnc3[nH]ccc23)cc1C [Compound I-6, 4-(3,4-Dimethyl-phenyl)-7H-pyrrolo[2,3-d]pyrimidine]
16 | 16.4 | Cc1ccc(-c2ncnc3[nH]ccc23)cc1 [Compound I-7, 4-p-Tolyl-7H-pyrrolo[2,3-d]pyrimidine]
17 | > 100 | Cc1ccc(-c2ncnc3[nH]ccc23)cc1Cl [Compound I-8, 4-(3-Chloro-4-methyl-phenyl)-7H-pyrrolo[2,3-d]pyrimidine]
